In patent US20050261246A1, “Methods for treating inflammatory and autoimmune diseases” (priority 2004, published 2005):

Columns and labels:
[1] = system: CD11c+/CD40+/CD86+ spleen cells; experiment: Splenic dendritic, B and T cells in non-CAIA Balb/c mice treated with SNS (FACS); format: in vivo, mouse; details: 5 mg/kg i.p. five consecutive days
Experimental: (A) Reduction of CD11c+/CD40+/CD86+ cells isolated from spleens of non-CAIA Balb/c mice treated i.p. with SNS at 5 mg/kg or with PBS for 5 consecutive days. Spleens were isolated on the next day after the last SNS injection and splenocytes were analyzed using FACS. The percentage value represents CD11c+/CD40+/CD86+ cell percentage out of the entire splenocyte population. […] Values on X and Y axes represent fluorescence intensity for cell surface markers CD11c and CD40, B220, and CD90.2 (Thy-1), respectively.
Balb/c mice were treated i.p. with SNS for five consecutive days at 5 mg/kg and their spleen were harvested the next day after the last injection. Control mice received same numbers of injection of PBS. Splenic cells were stained with fluorescence-labeled antibodies, and analyzed by flow cytometry.

CAIA mice = experiment: Collagen type II antibody-induced arthritis (CAIA) mouse model; format: in vivo
Experimental: FIG. 9A-H the effect of SNS on hind paw swelling in CAIA mice. A and E: Day 0, B and F: Day 7, C: Day 10 in PBS-treated CAIA, G: Day 10 in SNS-treated CAIA after 3 injections, D: Day 12 in PBS-treated mice, and H: Day 12 in SNS-treated CAIA mice after five injections. SNS treatment was started on day 7 after anti-collagen type II mAb injection and i.p. injections of SNS were continued for 5 consecutive days at a dose of 5 mg/kg.
FIG. 10 is a graph of the data (exemplified in FIG. 9) on CAIA progression and effect of SNS on foot pad measurements in CAIA mice. Solid square: PBS-treated CAIA group (n=5), closed triangle: SNS-treated CAIA group (n=5). SNS treatment (i.p.) was started on day 7 after anti-collagen type II mAb injection, and SNS injections were continued for 5 consecutive days at a dose of 5 mg/kg. Values represent mean±S.E.M. P<0.0001. Statistical analysis was performed using t-test.
Sections of ankle joints were stained with hematoxylin and eosin (original magnification, ×10) on day 21 after mAb injection. SNS treatment (i.p.) was started on day 7 after anti-collagen type II mAb injection, and SNS injections were continued for 5 consecutive days at a dose of 5 mg/kg. Representative joint sections in non-CAIA group (A and D), PBS-treated CAIA (B and E), and SNS-treated CAIA (C and F) are shown at magnifications of ×10 and ×40, respectively.
Collagen-induced arthritis (CIA) is an experimental model for rheumatoid arthritis. In this model, antibodies against type II collagen are critical for the pathogenesis of arthritis. […] This model system has been used for investigating underlying cellular and molecular mechanisms during the effector phase of CIA (1).
FIGS. 9-10 show CAIA progression and the effect of SNS on hind paw swelling in CAIA mice. […] A and E: Day 0 (mAb immunization), B and F: Day 7 after antibody injection, C. Day10 after immunization in PBS-treated CAIA, G: Day 10 after immunization in SNS-treated CAIA after three SNS injections, D: Day 12 after immunization in PBS-treated CAIA mice, and […]: Day 12 after immunization in SNS-treated CAIA mice after five SNS injections. Ib. […] Solid square: control CAIA group treated with PBS (n=5), closed triangle: sodium narcistatin-treated CAIA group (n=5). Values represent mean±S.E.M. p<0.0001 vs. control CAIA group.

O=C1N[C@@H]2C(=C[C@H](O)[C@H]3OP(=O)(O)O[C@H]32)c2cc3c(c(O)c21)OCO3 [SNS, sodium narcistatin]
CD11c+/CD86+/CD40+ spleen cells (mature dendritic cells) [1]: reduction of CD11c+/CD86+/CD40+ spleen cells | T- and B-cell profile (B220, CD90.2) [1]: not affected | joint swelling after the fifth injection (CAIA mice; CAIA mice, 5 mg/kg i.p.): swelling disappeared | joint swelling after the third injection (CAIA mice; CAIA mice, 5 mg/kg i.p.): reduced joint swelling | ankle width (CAIA mice; CAIA mice, 5 mg/kg i.p. 5 consecutive days from day 7, vs saline-treated, P<0.0001): significant decrease | histology of ankle joints: inflammatory infiltration, cartilage and bone destruction (CAIA mice; CAIA mice, day 21, hematoxylin and eosin): very little inflammatory infiltration to ankle joints and virtually no cartilage and bone destruction | toxicity in CAIA study (CAIA mice; at the dosage used): toxic to the animals | toxicity, SNS treatment only (CAIA mice; mice that only received SNS): did not observe toxicity | toxicity, combination of SNS and LPS treatment (CAIA mice; mouse, in vivo): appeared to increase toxicity
